In patent US11345666B2, “Phenyl and pyridinyl substituted imidazoles as modulators of RORγT” (Janssen Pharmaceutica NV, priority 2018, dated 2022) one finds Kd, IC50 and inhibition data, which are given here for nine compounds.

The target in assay [1] is human RORγt ligand binding domain (RORγt LBD) (Homo sapiens (Human), UniProt P51449). Description: RORγt ThermoFluor assay. An excerpt: ThermoFluor® is a fluorescence based assay that estimates ligand binding affinities by measuring the effect of a ligand on protein thermal stability (Pantoliano, M. W., Petrella, E. C., Kwasnoski, J. D., Lobanov, V. S., Myslik, J., Graf, E., Carver, T., Asel, E., Springer, B. A., Lane, P., and Salemme, F. R. (2001) High-density miniaturized thermal shift assays as a general strategy for drug discovery. J Biomol Screen 6, 429-40, and Matulis, D., Kranz, J. K., Salemme, F. R., and Todd, M. J. (2005) Thermodynamic stability of carbonic anhydrase: measurements of binding affinity and stoichiometry using ThermoFluor. Biochemistry 44, 5258-66). This approach is applicable to a wide variety of systems, and rigorous in theoretical interpretation through quantitation of equilibrium binding constants (KD).
Sequence of human RORγt ligand binding domain (RORγt LBD) (P51449 other isoform, or with tags, fused parts or gaps): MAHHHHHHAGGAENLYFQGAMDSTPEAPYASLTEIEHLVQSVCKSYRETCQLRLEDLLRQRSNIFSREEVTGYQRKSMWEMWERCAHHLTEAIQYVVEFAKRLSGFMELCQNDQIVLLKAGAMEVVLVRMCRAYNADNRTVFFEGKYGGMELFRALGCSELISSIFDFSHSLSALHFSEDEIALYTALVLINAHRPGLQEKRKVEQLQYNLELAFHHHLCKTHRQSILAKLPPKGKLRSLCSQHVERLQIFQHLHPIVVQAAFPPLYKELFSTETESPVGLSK
The shift in the melting point described as a ΔTm is proportional to the concentration and affinity of the ligand.
RORγt ThermoFluor® Assay Construct
Nucleotides 850-1635 (SEQ ID NO:2) coding for the wild type human RORγt ligand binding domain (RORγt LBD) were cloned into the pHIS 1 vector, a modified pET E. coli expression vector (Accelagen, San Diego), containing an in-frame N-terminal His-tag and a TurboTEV protease cleavage site (ENLYFQG, SEQ ID NO:3) upstream of the cloned insert sequence. The amino acid sequence for the RORγt construct used in the Thermofluor® assay is shown as SEQ ID NO:4.
ThermoFluor® experiments were carried out using instruments owned by Janssen Research and Development, L.L.C. through its acquisition of 3-Dimensional Pharmaceuticals, Inc. 1,8-ANS (Invitrogen) was used as a fluorescent dye. Protein and compound solutions are dispensed into black 384-well polypropylene PCR microplates (Abgene) and overlayed with silicone oil (1 μL, Fluka, type DC 200) to prevent evaporation.
Bar-coded assay plates are robotically loaded onto a thermostatically controlled PCR-type thermal block and then heated at a typical ramp-rate of 1° C./min for all experiments. Fluorescence was measured by continuous illumination with UV light (Hamamatsu LC6) supplied via fiber optic and filtered through a band-pass filter (380-400 nm; >6 OD cutoff). Fluorescence emission of the entire 384-well plate was detected by measuring light intensity using a CCD camera (Sensys, Roper Scientific) filtered to detect 500±25 nm, resulting in simultaneous and independent readings of all 384 wells. Images were collected at each temperature, and the sum of the pixel intensity in a given area of the assay plate was recorded versus temperature. Reference wells contained RORγt without compounds, and the assay conditions were as follows: • 0.065 mg/mL RORγt • 60 μM 1,8-ANS • 100 mM Hepes, pH 7.0 • 10 mM NaCl • 2.5 mM GSH • 0.002% Tween-20
Project compounds were arranged in a pre-dosed mother plate (Greiner Bio-one) wherein compounds are serially diluted in 100% DMSO by 1:2 from a high concentration of 10 mM over 12 columns within a series (column 12 is a reference well containing DMSO, no compound). The compounds were robotically dispensed directly into assay plates (1×=46 nL) using a Hummingbird capillary liquid handling instrument (Digilab). Following compound dispense, protein and dye in buffer was added to achieve the final assay volume of 3 μL, followed by 1 μL of silicone oil.
The binding affinity was estimated as described previously (Matulis, D., Kranz, J. K., Salemme, F. R., and Todd, M. J. (2005) Thermodynamic stability of carbonic anhydrase: measurements of binding affinity and stoichiometry using ThermoFluor®. Biochemistry 44, 5258-66) using the following thermodynamic parameters of protein unfolding: […]
On the technique in general: DSF heats the sample and reads unfolding from a dye or from intrinsic fluorescence.

Another assay concerns the target full-length human RORγt (Homo sapiens (Human), UniProt P51449). Description: RORγt (full-length human) reporter assay, conditions A or B. The assay is classed as cell-based. Particulars: for IC50: HEK293T cells, read-out: RORγt (FL) Reporter Assay A or B, IC50; for inhibition at 2 µM: 2 μM compound concentration (**); for inhibition at 3 µM: 3 μM compound concentration (*). An excerpt: RORγt (Full-Length Human) Reporter Assay:
Cells used in this assay were transiently co-transfected with three different plasmids, one expressing the GAL4-DNA binding domain (DBD)-RORγt fusion protein under control of a CMV promoter (NH2-Gal4-DBD:RORC—COOH in pCMV-BD, Stratagene #211342), and two reporter plasmids—the firefly luciferase reporter under control of a GAL4 promoter (pFR-Luc 2×GAL4) and Renilla luciferase reporter under control of CMV promoter (pRL-CMV, Promega #E2261). […] HEK293T cells were plated at 35,000 per well in 96-well plate in medium of DMEM with 10% FBS. After 18-22 hours incubation, the transfection was carried out by using a PEI solution with 170.5 ng total DNA/well (50 ng pCMV-BD-ROR plus 20 ng of pFR-Luc reporter and 0.5 ng of pRL-CMV reporter plus 100 ng Carrier DNA (Clontech #630440) for each well). 4-6 hours after transfection, cells were treated with compounds for overnight in the medium with final concentration of FBS 1.3% and DMSO 0.1%. After overnight (16 to 20 hours) incubation, media were removed and cells were lysed with […] Glo Lysis Buffer (Promega) for 10-15 minutes followed by 10 minute incubation with 50 μL Dual Glo reagent (Promega) at room temperature. Firefly luciferase luminescence was measured using a BMG Pherastar plate reader. To each well, 50 μL Stop and Glo reagent was added and incubated for 10 minutes at room temperature. Renilla luminescence was measured using a BMG Pherastar plate reader. To calculate the effect of compounds on RORγt activity, firefly values were normalized against values of DMSO only and values of reference compound at saturating concentration, then further normalized against Renilla signals. IC50s were generated by plotting final Renilla normalized data against compound concentration and percent inhibition was calculated against DMSO control.
Cells used in this assay were transiently co-transfected with three different plasmids, one expressing the GAL4-DNA binding domain (DBD)-RORγt fusion protein under control of a CMV promoter (NH2-Gal4-DBD:RORC—COOH in pCMV-BD, Stratagene #211342), and two reporter plasmids—the firefly luciferase reporter under control of a GAL4 promoter (pFR-Luc 2×GAL4) and Renilla luciferase reporter under control of CMV promoter (pRL-CMV, Promega #E2261). […] HEK293T cells were plated at 8750 cells per well in 384-well plate in medium of DMEM with 10% FBS. After 18-22 hours incubation, the transfection was carried out by using a PEI solution with 42.6 ng total DNA/well (12.5 ng pCMV-BD-ROR plus 5 ng of pFR-Luc reporter and 0.125 ng of pRL-CMV reporter plus 25 ng Carrier DNA (Clontech #630440) for each well). 4-6 hours after transfection, cells were treated with compounds for overnight in the medium with final concentration of FBS 1.3% and DMSO 0.1%. After overnight (16 to 20 hours) incubation, media were removed and cells were lysed with 20 μL Glo Lysis Buffer (Promega) for 10-15 minutes followed by 10 minute incubation with 20 μL Dual Glo reagent (Promega) at room temperature. Firefly luciferase luminescence was measured using a BMG Pherastar plate reader. To each well, 20 μL Stop and Glo reagent was added and incubated for 10 minutes at room temperature. Renilla luminescence was measured using a BMG Pherastar plate reader. To calculate the effect of compounds on RORγt activity, firefly values were normalized against values of DMSO only and values of reference compound at saturating concentration, then further normalized against Renilla signals. IC50s were generated by plotting final Renilla normalized data against compound concentration and percent inhibition was calculated against DMSO control.
Background: A reporter such as luciferase makes a cellular process visible.

[2] abbreviates: read-out: RORγt (FL) Reporter Assay A or B, % inhibition.

Sequence of full-length human RORγt (P51449 other isoform, or with tags, fused parts or gaps): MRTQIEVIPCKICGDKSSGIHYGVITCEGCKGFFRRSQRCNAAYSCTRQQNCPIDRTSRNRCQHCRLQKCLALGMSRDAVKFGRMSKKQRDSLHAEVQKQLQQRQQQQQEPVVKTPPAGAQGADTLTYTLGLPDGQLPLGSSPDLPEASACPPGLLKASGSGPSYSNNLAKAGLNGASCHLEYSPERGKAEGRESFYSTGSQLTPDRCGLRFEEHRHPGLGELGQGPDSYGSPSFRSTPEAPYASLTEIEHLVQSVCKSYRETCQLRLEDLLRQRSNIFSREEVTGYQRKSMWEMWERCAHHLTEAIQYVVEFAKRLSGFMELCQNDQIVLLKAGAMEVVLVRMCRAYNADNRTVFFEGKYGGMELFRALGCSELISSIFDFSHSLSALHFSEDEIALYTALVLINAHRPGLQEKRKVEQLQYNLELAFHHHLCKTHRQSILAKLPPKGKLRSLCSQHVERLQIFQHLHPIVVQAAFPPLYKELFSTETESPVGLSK

As a reminder, the Kd is a measure of binding affinity in units of concentration. The low end stands for a tighter complex, the high end for a looser complex. As usually defined, the IC50 is the concentration at which inhibition is half-maximal. Usually inhibition stands for the drop in the measured response relative to a control, in per cent. In turn, `CCc1nc(C(=O)NC[C@]2(O)CC[C@@H](S(C)(=O)=O)CC2)cn1-c1c(F)cc(CC(C)C(F)(F)F)cc1F` (stereo partly drawn) [Example 84, 1-(2,6-Difluoro-4-(3,3,3-trifluoro-2-methylpropyl)phenyl)-2-ethyl-N-(((1s,4s)-1-hydroxy-4-(methylsulfonyl)cyclohexyl)methyl)-1H-imidazole-4-carboxamide] returned a Kd in assay [1] of 2200 nM. Besides, the IC50 at full-length human RORγt was found to be 2000 nM. For the same compound, the inhibition at 6 µM at full-length human RORγt (read-out: RORγt (FL) Reporter Assay A or B, % inhibition @ 6 μM, 6 μM compound concentration) stood at 35%.
With `CCc1nc(C(=O)NC[C@H]2CC[C@H](S(C)(=O)=O)CC2)c(C#N)n1-c1ccc(CC(C)C(F)(F)F)cc1OC` (stereo partly drawn) [Example 16, 5-Cyano-2-ethyl-1-(2-methoxy-4-(3,3,3-trifluoro-2-methylpropyl)phenyl)-N-(((1r,4r)-4-(methylsulfonyl)cyclohexyl)methyl)-1H-imidazole-4-carboxamide], the Kd in assay [1] is 1.3 nM. For the same compound, the inhibition at 2 µM on full-length human RORγt (setting [2]) was 103%. Moreover, the IC50 on full-length human RORγt stood at 16 nM.
In assay [1], `CCc1nc(C(=O)NC[C@]2(O)CC[C@@H](S(C)(=O)=O)CC2)c(Cl)n1-c1ccc(CCCC(F)(F)F)cc1F` [Example 98, 5-Chloro-2-ethyl-1-(2-fluoro-4-(4,4,4-trifluorobutyl)phenyl)-N-(((1s,4s)-1-hydroxy-4-(methylsulfonyl)cyclohexyl)methyl)-1H-imidazole-4-carboxamide] gave an equilibrium dissociation constant (Kd) of 33 nM. Also, the inhibition at 2 µM at full-length human RORγt (setting [2]) was found to be 43%. For the same compound, the IC50 at full-length human RORγt turned out to be 33 nM.
`CCc1nc(C(=O)NC[C@H]2CC[C@H](S(C)(=O)=O)CC2)c(F)n1-c1ccc(CC(C)(C)C(F)(F)F)cc1OC(F)F` [Example 34, 1-(2-(Difluoromethoxy)-4-(3,3,3-trifluoro-2,2-dimethylpropyl)phenyl)-2-ethyl-5-fluoro-N-(((1r,4r)-4-(methylsulfonyl)cyclohexyl)methyl)-1H-imidazole-4-carboxamide] yielded a Kd in assay [1] of 3.5 nM. Further, the inhibition at 2 µM on full-length human RORγt (setting [2]) stood at 98%. For the same compound, on full-length human RORγt, the IC50 is 37 nM.
With `CCc1nc(C(=O)NC[C@]2(O)CC[C@@H](S(C)(=O)=O)CC2)c(Cl)n1-c1ncc(CC(C(F)(F)F)C(F)(F)F)cc1OC(F)F` [Example 62, 5-Chloro-1-(3-(difluoromethoxy)-5-(3,3,3-trifluoro-2-(trifluoromethyl)propyl)pyridin-2-yl)-2-ethyl-N-(((1s,4s)-1-hydroxy-4-(methylsulfonyl)cyclohexyl)methyl)-1H-imidazole-4-carboxamide], the affinity in assay [1], expressed as Kd, was 19 nM. Besides, the inhibition at 3 µM at full-length human RORγt (setting [2]) is 100%. For the same compound, the half-maximal inhibitory concentration (IC50) at full-length human RORγt came to 89 nM.
As to `CCc1nc(C(=O)NC[C@]2(O)CC[C@@H](S(C)(=O)=O)CC2)c(C)n1-c1ccc(CC(C(F)(F)F)C(F)(F)F)c(F)c1` [Example 106, 2-Ethyl-1-(3-fluoro-4-(3,3,3-trifluoro-2-(trifluoromethyl)propyl)phenyl)-N-(((1s,4s)-1-hydroxy-4-(methylsulfonyl)cyclohexyl)methyl)-5-methyl-1H-imidazole-4-carboxamide], the dissociation constant Kd in assay [1] stood at 55 nM. Further, on full-length human RORγt (0.22 μM compound concentration (******), read-out: RORγt (FL) Reporter Assay A or B, % inhibition), the inhibition at 0.22 µM was 40%. Besides, the half-maximal inhibitory concentration (IC50) at full-length human RORγt came out at 170 nM.
Take `[2H]C([2H])([2H])Oc1cc(CC(C)(C)C(F)(F)F)ccc1-n1c(CC)nc(C(=O)NC[C@H]2CC[C@H](S(C)(=O)=O)CC2)c1F` [Example 33, 2-Ethyl-5-fluoro-1-(2-(methoxy-d3)-4-(3,3,3-trifluoro-2,2-dimethylpropyl)phenyl)-N-(((1r,4r)-4-(methylsulfonyl)cyclohexyl)methyl)-1H-imidazole-4-carboxamide]: binding in assay [1] was characterised by a dissociation constant (Kd) of 4.8 nM. Further, the inhibition at 0.67 µM at full-length human RORγt (0.67 μM compound concentration (****), read-out: RORγt (FL) Reporter Assay A or B, % inhibition) was found to be 94%. The IC50 on full-length human RORγt was 15 nM.
In turn, `CCc1nc(C(=O)NC[C@H]2CC[C@H](S(C)(=O)=O)CC2)c(Cl)n1-c1ncc(CC(C(F)(F)F)C(F)(F)F)cc1OC(F)F` [Example 63, 5-Chloro-1-(3-(difluoromethoxy)-5-(3,3,3-trifluoro-2-(trifluoromethyl)propyl)pyridin-2-yl)-2-ethyl-N-(((1r,4r)-4-(methylsulfonyl)cyclohexyl)methyl)-1H-imidazole-4-carboxamide] had a Kd in assay [1] of 7.3 nM. Also, at full-length human RORγt (setting [2]), the inhibition at 3 µM stood at 95%. Further, the IC50 at full-length human RORγt is 47 nM.
On the same counts, the results for `CCc1nc(C(=O)NC[C@H]2CC[C@H](S(C)(=O)=O)C[C@@H]2O)c(Cl)n1-c1ncc(CC(C(F)(F)F)C(F)(F)F)cc1OC(F)F` (stereo in doubt) [Example 64, 5-Chloro-1-(3-(difluoromethoxy)-5-(3,3,3-trifluoro-2-(trifluoromethyl)propyl)pyridin-2-yl)-2-ethyl-N-(((1R*,2S*,4S*)-2-hydroxy-4-(methylsulfonyl)cyclohexyl)methyl)-H-imidazole-4-carboxamide] are 35 nM, 101% and 210 nM.
